Results published in patent publication US11078197B2, “5-membered and bicyclic heterocyclic amides as inhibitors of rock” (BRISTOL-MYERS SQUIBB COMPANY, priority 2017, dated 2021).

Target: ROCK2 (Homo sapiens (Human), UniProt O75116)
Test: ROCK2 assay (peptide phosphorylation, LABCHIP 3000 Reader)
Format: biochemical
Details: 5 μM ATP, 1.5 μM peptide substrate, dose-response
Description: After incubation, the reaction was terminated by the addition of EDTA and the phosphorylated and non-phosphorylated peptides separated using a LABCHIP®3000 Reader (Caliper Life Sciences). […] Compounds were tested in dose-response format, and the inhibition of kinase activity was calculated at each concentration of compound. […] Representative Examples were tested in the ROCK2 assay described above and found having ROCK2 inhibitory activity.

Sequence of ROCK2 (O75116 whole entry, species assumed): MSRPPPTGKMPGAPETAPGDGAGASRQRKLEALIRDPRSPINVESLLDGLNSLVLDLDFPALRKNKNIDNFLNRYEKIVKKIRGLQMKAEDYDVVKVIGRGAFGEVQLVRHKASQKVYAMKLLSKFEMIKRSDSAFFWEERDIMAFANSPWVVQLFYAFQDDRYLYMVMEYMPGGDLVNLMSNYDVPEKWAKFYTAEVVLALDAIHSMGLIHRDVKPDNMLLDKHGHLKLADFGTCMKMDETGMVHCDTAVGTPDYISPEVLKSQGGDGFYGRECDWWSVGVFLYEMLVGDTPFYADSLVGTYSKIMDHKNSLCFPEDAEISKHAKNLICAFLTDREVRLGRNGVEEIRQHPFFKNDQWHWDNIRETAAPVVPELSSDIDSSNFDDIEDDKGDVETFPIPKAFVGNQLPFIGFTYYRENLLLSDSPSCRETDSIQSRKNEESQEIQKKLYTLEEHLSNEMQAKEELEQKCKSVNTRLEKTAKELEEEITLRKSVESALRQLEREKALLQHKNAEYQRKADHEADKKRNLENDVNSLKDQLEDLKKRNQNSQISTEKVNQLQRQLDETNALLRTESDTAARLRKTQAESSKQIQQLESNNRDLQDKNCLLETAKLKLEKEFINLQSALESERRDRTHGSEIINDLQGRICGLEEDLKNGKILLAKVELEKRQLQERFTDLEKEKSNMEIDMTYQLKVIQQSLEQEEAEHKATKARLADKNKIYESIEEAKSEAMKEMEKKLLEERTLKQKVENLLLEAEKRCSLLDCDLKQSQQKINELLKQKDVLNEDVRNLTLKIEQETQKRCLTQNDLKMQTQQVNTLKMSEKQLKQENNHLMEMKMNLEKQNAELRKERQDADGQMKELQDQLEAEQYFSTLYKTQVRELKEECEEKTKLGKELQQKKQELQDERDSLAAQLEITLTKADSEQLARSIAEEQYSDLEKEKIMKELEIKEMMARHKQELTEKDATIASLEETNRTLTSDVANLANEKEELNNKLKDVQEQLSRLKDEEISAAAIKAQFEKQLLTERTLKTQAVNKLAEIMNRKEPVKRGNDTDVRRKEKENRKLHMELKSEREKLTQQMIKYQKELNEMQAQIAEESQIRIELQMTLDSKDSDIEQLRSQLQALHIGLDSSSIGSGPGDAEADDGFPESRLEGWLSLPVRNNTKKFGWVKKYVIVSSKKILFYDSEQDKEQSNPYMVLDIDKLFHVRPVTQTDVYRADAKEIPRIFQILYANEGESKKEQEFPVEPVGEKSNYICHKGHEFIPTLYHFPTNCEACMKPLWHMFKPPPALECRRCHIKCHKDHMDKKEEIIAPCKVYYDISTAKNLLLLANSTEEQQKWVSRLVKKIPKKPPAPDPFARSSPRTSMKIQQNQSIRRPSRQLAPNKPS

| SMILES | IC50 [nM] |
| --- | --- |
| NC(=O)c1sc(C2CC2)nc1O[C@H]1C[C@@]2(C[C@H](NC(=O)c3nc(C(F)(F)F)n4cc(-c5ccc(F)nc5)ccc34)C2)C1 (stereo partly drawn) [Example 63, 2-cyclopropyl-4-{[(aR)-6-[6-(6-fluoropyridin-3-yl)-3-(trifluoromethyl)imidazo[1,5-a]pyridine-1-amido]spiro[3.3]heptan-2-yl]oxy}-1,3-thiazole-5-carboxamide] | 6.1 |
| NC(=O)c1sc(C2CC2)nc1O[C@H]1C[C@@]2(C[C@H](NC(=O)c3nc(C(F)(F)F)n4ccccc34)C2)C1 (stereo partly drawn) [Example 64, 2-cyclopropyl-4-{[(aR)-6-[3-(trifluoromethyl)imidazo[1,5-a]pyridine-1-amido]spiro[3.3]heptan-2-yl]oxy}-1,3-thiazole-5-carboxamide] | 11.4 |
| Cc1c(C(=O)N[C@H]2C[C@]3(C2)C[C@H](Oc2nn(C4CC4)cc2C(N)=O)C3)cnn1-c1ccccc1 (stereo partly drawn) [Example 65, 1-cyclopropyl-3-{[(aR)-6-(5-methyl-1-phenyl-1H-pyrazole-4-amido)spiro[3.3]heptan-2-yl]oxy}-1H-pyrazole-4-carboxamide] | 141 |
| Cc1c(C(=O)N[C@H]2C[C@]3(C2)C[C@H](Oc2nn(C4CC4)cc2C(N)=O)C3)cnn1-c1ccc(F)cc1F (stereo partly drawn) [Example 66, 1-cyclopropyl-3-{[(aR)-6-[1-(2,4-difluorophenyl)-5-methyl-1H-pyrazole-4-amido]spiro[3.3]heptan-2-yl]oxy}-1H-pyrazole-4-carboxamide] | 225 |
| Cc1c(C(=O)N[C@H]2C[C@]3(C2)C[C@H](Oc2nc(C4CC4)sc2C(N)=O)C3)cnn1-c1ccc(F)cc1F (stereo partly drawn) [Example 67, 2-cyclopropyl-4-{[(aR)-6-[1-(2,4-difluorophenyl)-5-methyl-1H-pyrazole-4-amido]spiro[3.3]heptan-2-yl]oxy}-1,3-thiazole-5-carboxamide] | 142 |
| Cc1c(C(=O)N[C@H]2C[C@]3(C2)C[C@H](Oc2nc(C4CC4)sc2C(N)=O)C3)cnn1-c1ccccc1 (stereo partly drawn) [Example 68, 2-cyclopropyl-4-{[(aR)-6-(5-methyl-1-phenyl-1H-pyrazole-4-amido)spiro[3.3]heptan-2-yl]oxy}-1,3-thiazole-5-carboxamide] | 108 |
| CC(C)(O)COc1ccc2c(C(=O)N[C@H]3C[C@]4(C3)C[C@H](Oc3nn(C5CC5)cc3C(N)=O)C4)cnn2c1C1CC1 (stereo partly drawn) [Example 69, 1-cyclopropyl-3-({(aR)-6-[7-cyclopropyl-6-(2-hydroxy-2-methylpropoxy)pyrazolo [1,5-a]pyridine-3-amido]spiro[3.3]heptan-2-yl}oxy)-1H-pyrazole-4-carboxamide] | 4.5 |
| Cc1nc(O[C@H]2C[C@@]3(C[C@H](NC(=O)c4cnn5cc(OCC(F)F)ccc45)C3)C2)c(C(N)=O)s1 (stereo partly drawn) [Example 70, 2-methyl-4-{[(aR)-6-[6-(2,2-difluoroethoxy)pyrazolo [1,5-a]pyridine-3-amido]spiro[3.3]heptan-2-yl]oxy}-1,3-thiazole-5-carboxamide] | 45.4 |
| CC(C)(O)COc1ccc2c(C(=O)N[C@H]3C[C@]4(C3)C[C@H](Oc3nc5ccccc5cc3C(N)=O)C4)cnn2c1C1CC1 (stereo partly drawn) [Example 71, 2-(((aR)6-(7-cyclopropyl-6-(2-hydroxy-2-methylpropoxy)pyrazolo [1,5-a]pyridine-3-carboxamido)spiro [3.3]heptan-2-yl)oxy)quinoline-3-carboxamide] | 8.7 |
| Cc1nn(C)c2nc(OC3CC4(CC(NC(=O)c5cnn6cc(OCC(C)(C)O)ccc56)C4)C3)c(C(N)=O)cc12 (centres unmarked) [Example 73, 6-({6-[6-(2-hydroxy-2-methylpropoxy)pyrazolo [1,5-a]pyridine-3-amido]spiro[3.3]heptan-2-yl}oxy)-1,3-dimethyl-1H-pyrazolo[3,4-b]pyridine-5-carboxamide] | 1160 |
| NC(=O)c1cc2sccc2nc1OC1CC2(CC(NC(=O)c3cnn4ccccc34)C2)C1 (centres unmarked) [Example 75, 5-[(6-{pyrazolo[1,5-a]pyridine-3-amido}spiro[3.3]heptan-2-yl)oxy]thieno[3,2-b]pyridine-6-carboxamide] | 26.7 |
| CC(C)(O)COc1ccc2c(C(=O)NC3CC4(C3)CC(Oc3nc5ccsc5cc3C(N)=O)C4)cnn2c1 (centres unmarked) [Example 76, 5-({6-[6-(2-hydroxy-2-methylpropoxy)pyrazolo[1,5-a]pyridine-3-amido]spiro[3.3]heptan-2-yl}oxy)thieno[3,2-b]pyridine-6-carboxamide] | 6.8 |
| NC(=O)c1cc2sccc2nc1OC1CC2(CC(NC(=O)C3CCC(F)(F)CC3)C2)C1 (centres unmarked) [Example 77, 5-{[6-(4,4-difluorocyclohexane amido)spiro[3.3]heptan-2-yl]oxy}thieno[3,2-b]pyridine-6-carboxamide] | 634 |
| N#Cc1cccc(C(=O)NC2CC3(C2)CC(Oc2nc4ccsc4cc2C(N)=O)C3)c1 (centres unmarked) [Example 79, 5-{[6-(3-cyanobenzamido)spiro[3.3]heptan-2-yl]oxy}thieno[3,2-b]pyridine-6-carboxamide] | 22.2 |
| NC(=O)c1cc2c(nc1OC1CC3(CC(NC(=O)c4cnn5ccccc45)C3)C1)CCOC2 (centres unmarked) [Example 81, 2-[(6-{pyrazolo[1,5-a]pyridine-3-amido}spiro[3.3]heptan-2-yl)oxy]-5H,7H,8H-pyrano[4,3-b]pyridine-3-carboxamide] | 323 |
| CC(C)(O)COc1ccc2c(C(=O)NC3CC4(C3)CC(Oc3nc5c(cc3C(N)=O)COCC5)C4)cnn2c1 (centres unmarked) [Example 82, N-[6-({3-carbamoyl-5H,7H,8H-pyrano[4,3-b]pyridin-2-yl}oxy)spiro[3.3]heptan-2-yl]-6-(2-hydroxy-2-methylpropoxy) pyrazolo[1,5-a]pyridine-3-carboxamide] | 20 |
| N#Cc1cccc(C(=O)N[C@H]2C[C@]3(C2)C[C@H](Oc2nc4ccsc4cc2C(N)=O)C3)c1 (stereo partly drawn) [Example 83, 5-{[(aR)-6-(3-cyanobenzamido)spiro[3.3]heptan-2-yl]oxy}thieno[3,2-b]pyridine-6-carboxamide] | 9.7 |
| CC(C)(O)COc1ccc2c(C(=O)N[C@H]3C[C@]4(C3)C[C@H](Oc3nc5ccsc5cc3C(N)=O)C4)cnn2c1 (stereo partly drawn) [Example 84, 6-(2-hydroxy-2-methylpropoxy)-N-[(aR)-6-({6-carbamoylthieno[3,2-b]pyridin-5-yl}oxy)spiro[3.3]heptan-2-yl]pyrazolo[1,5-a]pyridine-3-carboxamide] | 2.2 |
| N#Cc1cccc(C(=O)N[C@H]2C[C@]3(C2)C[C@H](Oc2nc4c(cc2C(N)=O)COCC4)C3)c1 (stereo partly drawn) [Example 85, 2-{[(aR)-6-(3-cyanobenzamido)spiro[3.3]heptan-2-yl]oxy}-5H,7H,8H-pyrano[4,3-b]pyridine-3-carboxamide] | 144 |
| NC(=O)c1cc2sccc2nc1O[C@H]1C[C@]2(C1)C[C@H](N1C(=O)CN(Cc3ccccc3)CC1=O)C2 (stereo partly drawn) [Example 86, 5-{[(aR)-6-(4-benzyl-2,6-dioxopiperazin-1-yl)spiro[3.3]heptan-2-yl]oxy}thieno[3,2-b]pyridine-6-carboxamide] | 85.9 |
| N#Cc1cc(C(=O)N[C@H]2C[C@]3(C2)C[C@H](Oc2nc4c(cc2C(N)=O)COCC4)C3)ccc1F (stereo partly drawn) [Example 87, 2-{[(aR)-6-(3-cyano-4-fluorobenzamido)spiro[3.3]heptan-2-yl]oxy}-5H,7H,8H-pyrano[4,3-b]pyridine-3-carboxamide] | 156 |
| N#CCc1cccc(C(=O)N[C@H]2C[C@]3(C2)C[C@H](Oc2nc4c(cc2C(N)=O)COCC4)C3)c1 (stereo partly drawn) [Example 88, 2-{[(aR)-6-[3-(cyanomethyl)benzamido]spiro[3.3]heptan-2-yl]oxy}-5H,7H,8H-pyrano[4,3-b]pyridine-3-carboxamide] | 35 |
| N#Cc1ccc(F)c(C(=O)N[C@H]2C[C@]3(C2)C[C@H](Oc2nc4c(cc2C(N)=O)COCC4)C3)c1 (stereo partly drawn) [Example 89, 2-{[(aR)-6-(5-cyano-2-fluorobenzamido)spiro[3.3]heptan-2-yl]oxy}-5H,7H,8H-pyrano[4,3-b]pyridine-3-carboxamide] | 716 |
| COc1ccc(C(=O)N[C@H]2C[C@]3(C2)C[C@H](Oc2nc4c(cc2C(N)=O)COCC4)C3)cc1C#N (stereo partly drawn) [Example 90, 2-{[(aR)-6-(3-cyano-4-methoxybenzamido)spiro[3.3]heptan-2-yl]oxy}-5H,7H,8H-pyrano[4,3-b]pyridine-3-carboxamide] | 114 |
| NC(=O)c1cc2c(nc1O[C@H]1C[C@@]3(C[C@H](NC(=O)c4ccc5[nH]ncc5c4)C3)C1)CCOC2 (stereo partly drawn) [Example 91, N-[(aR)-6-({3-carbamoyl-5H,7H,8H-pyrano[4,3-b]pyridin-2-yl}oxy)spiro[3.3]heptan-2-yl]-1H-indazole-5-carboxamide] | 330 |
| N#Cc1cc(C(=O)N[C@H]2C[C@]3(C2)C[C@H](Oc2nc4c(cc2C(N)=O)COCC4)C3)ccc1Br (stereo partly drawn) [Example 92, 2-{[(aR)-6-(4-bromo-3-cyanobenzamido)spiro[3.3]heptan-2-yl]oxy}-5H,7H,8H-pyrano[4,3-b]pyridine-3-carboxamide] | 191 |
| N#Cc1ccc(C(=O)N[C@H]2C[C@]3(C2)C[C@H](Oc2nc4c(cc2C(N)=O)COCC4)C3)cc1F (stereo partly drawn) [Example 93, 2-{[(aR)-6-(4-cyano-3-fluorobenzamido)spiro[3.3]heptan-2-yl]oxy}-5H,7H,8H-pyrano[4,3-b]pyridine-3-carboxamide] | 1460 |
| Cc1sc2cc(C(N)=O)c(O[C@H]3C[C@@]4(C[C@H](NC(=O)c5cnn6cc(OCC(C)(C)O)ccc56)C4)C3)nc2c1C (stereo partly drawn) [Example 94, 2,3-dimethyl-5-{[(aR)-6-[6-(2-hydroxy-2-methylpropoxy)pyrazolo[1,5-a]pyridine-3-amido]spiro[3.3]heptan-2-yl]oxy}thieno[3,2-b]pyridine-6-carboxamide] | 39 |
| Cc1sc2cc(C(N)=O)c(O[C@H]3C[C@@]4(C[C@H](NC(=O)c5cccc(C#N)c5)C4)C3)nc2c1C (stereo partly drawn) [Example 95, 2,3-dimethyl-5-{[(aR)-6-(3-cyanobenzamido)spiro[3.3]heptan-2-yl]oxy}thieno[3,2-b]pyridine-6-carboxamide] | 79 |
